Reference: article PMC8201054, “A Novel Benzopyrane Derivative Targeting Cancer Cell Metabolic and Survival Pathways” (Cancers, 2021)

How the values were obtained:
[1] = target: T1, inositol-3-phosphate synthase (Homo sapiens, UniProt Q9NPH2); experiment: DARTS proteomics in HEK293T lysate ([…]); assay type: cell-based
T1 construct: gene ISYNA1
T1 sequence (Q9NPH2 1-558): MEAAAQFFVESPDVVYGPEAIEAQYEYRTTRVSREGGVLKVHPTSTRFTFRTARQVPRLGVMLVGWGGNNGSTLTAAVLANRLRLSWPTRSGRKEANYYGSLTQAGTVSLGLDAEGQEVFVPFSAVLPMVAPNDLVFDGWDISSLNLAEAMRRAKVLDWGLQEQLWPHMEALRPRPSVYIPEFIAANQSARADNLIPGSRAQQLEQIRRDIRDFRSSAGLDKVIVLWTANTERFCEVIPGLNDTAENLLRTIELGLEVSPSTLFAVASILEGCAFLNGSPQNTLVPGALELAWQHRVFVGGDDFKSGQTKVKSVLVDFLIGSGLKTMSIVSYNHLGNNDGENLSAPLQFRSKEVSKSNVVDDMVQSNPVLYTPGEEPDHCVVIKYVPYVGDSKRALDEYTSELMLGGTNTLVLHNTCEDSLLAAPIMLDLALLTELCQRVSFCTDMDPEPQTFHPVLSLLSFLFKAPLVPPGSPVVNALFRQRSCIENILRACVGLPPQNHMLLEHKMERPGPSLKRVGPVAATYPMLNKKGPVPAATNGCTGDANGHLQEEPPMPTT

[2] = target: T2, thioredoxin reductase 1 (TrxR) (Homo sapiens, UniProt Q16881); experiment: DARTS proteomics in HEK293T lysate; TrxR activity assay in lysates of treated HCT116 cells; assay type: cell-based
T2 construct: gene TXNRD1
T2 sequence (Q16881 1-649): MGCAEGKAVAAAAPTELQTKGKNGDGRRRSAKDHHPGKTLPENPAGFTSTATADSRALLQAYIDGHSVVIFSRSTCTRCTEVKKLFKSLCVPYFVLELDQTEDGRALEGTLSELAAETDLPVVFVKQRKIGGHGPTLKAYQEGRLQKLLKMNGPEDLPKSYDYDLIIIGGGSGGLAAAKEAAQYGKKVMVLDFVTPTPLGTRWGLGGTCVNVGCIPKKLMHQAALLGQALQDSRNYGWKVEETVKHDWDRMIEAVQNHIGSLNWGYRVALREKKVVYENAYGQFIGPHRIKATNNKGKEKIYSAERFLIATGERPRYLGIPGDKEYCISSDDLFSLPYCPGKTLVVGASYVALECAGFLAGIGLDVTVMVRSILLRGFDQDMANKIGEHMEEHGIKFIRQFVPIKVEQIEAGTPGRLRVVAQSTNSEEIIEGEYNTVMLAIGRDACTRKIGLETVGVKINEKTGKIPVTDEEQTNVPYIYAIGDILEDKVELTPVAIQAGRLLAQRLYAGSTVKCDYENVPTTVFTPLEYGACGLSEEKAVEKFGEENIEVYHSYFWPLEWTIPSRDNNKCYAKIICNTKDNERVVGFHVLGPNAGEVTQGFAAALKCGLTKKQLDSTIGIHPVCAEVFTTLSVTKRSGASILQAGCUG

- IC50 [2]: 2420 nM
Compound: CC1(C)[C@H]2COc3ccc4ccccc4c3[C@H]2N=C2SC(c3ccccc3)=C(c3ccccc3)N21 [SIMR1281, (8aS,14aS)-9,9-dimethyl-11,12-diphenyl-8a,14a-dihydro-8H,9H-benzo[5, 6]chromeno[4,3-d]thiazolo[3,2-a]pyrimidine]
- DARTS proteomics in HEK293T lysate (0.01-1 μM) [1]: SIMR1281 has shown a concentration-dependent affinity toward the inositol-3-phosphate synthase enzyme in the DARTS proteomic assay
